Experimental data reported in US9939427B2, “Method for evaluating the scent performance of perfumes or perfume mixtures” (Symrise AG, priority 2013, dated 2018).
“Also recorded” adds a separate entry of the source.

Assays:
Type in all cases: cell-based
[1] = target: T1, OR8D2 (Homo sapiens, UniProt Q9GZM6); assay: Ca-imaging of OR8D2-transfected HEK293 cells; parameters: key to OR8D2 responded to odorant: ▪: 18 olfactory receptors responded to 32 odorants in related with specific anosmia; settings: for Number of cell responses, Experiment (OR8D2): odorant 200 μM, approximately 2000 transfected cells in three times of measuring (Table 4, FIG. 5)
T1 construct: specific primers, which amplify the complete open reading frame; expressed in transfected cells; host or cells: HEK293
T1 sequence (Q9GZM6 1-311): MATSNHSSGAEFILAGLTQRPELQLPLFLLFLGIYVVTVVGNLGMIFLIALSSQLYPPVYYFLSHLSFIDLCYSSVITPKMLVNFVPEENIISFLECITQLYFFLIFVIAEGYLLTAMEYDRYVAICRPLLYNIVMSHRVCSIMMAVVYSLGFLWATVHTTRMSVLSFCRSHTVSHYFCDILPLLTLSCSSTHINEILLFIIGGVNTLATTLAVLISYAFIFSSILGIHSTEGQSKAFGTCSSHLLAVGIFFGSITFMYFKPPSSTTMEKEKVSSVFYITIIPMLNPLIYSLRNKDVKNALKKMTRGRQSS
Protocol: (§1) HEK293 cells were cultivated in Petri dishes (Ø35 mm) as previously described (Benbernou et al. 2007). We grow up HEK293 cells in culture medium containing standard DMEM with 10% heat-inactivated fetal bovine serum, 2 mM L-glutamine, 100 units/ml penicillin, and 100 units/ml streptomycin in a humidified atmosphere (37° C., 5% CO2). After 2-3 days, the transfection process was carried out, whereby the cell culture was 70-80% confluent. The calciumphosphate method was applied to transfect DNA plasmid transiently in HEK293 cells in case of Ca-imaging method.
(§2) Calcium cations and phosphate anions created crystal precipitations coupled with DNA which could invade into the cells through endocytosis. Cells were transiently transfected with plasmid DNA which consists of pCI expression vector and PCR-amplified full-length cDNA of olfactory receptors candidates, and also Gα15, RTP1, Myr-Ric8A, HSC70, and m-Cherry as cofactors. The precipitation could be created after 15-20 min, with dropping the transfection solution on HEK293 cells. Before measuring by Ca-imaging cells were incubated 48-60 hours at 370 C, 5% CO2. Cationic liposome-mediated transfection method was applied to transfect DNA plasmid transiently in HANA3A cells in case of CRE-Luciferase and CRE-SEAP assays.
(§3) Calcium imaging of the transfected HEK293 cells was done by using chambers determinate an inverted microscope (Olympus; IX70) using a 10× objective (CPIanFL N Olympus). Fluorescence emission was determined every 4 s by using a CCD camera (Charge Coupled Device, C9100 Hamamatsu). The capillary tube which was responsible to supply odorants was generated closely above the cells. The columns filled with odorants, DMSO and ATP. Odorants were manually monitored to drop each 4-5 s to transfected cells. Solutions with drop wise form spread on HEK293 cells in 35 mm dishes.
(§4) In experiments, Fura-2 Acetoxymethylester (Fura-2/AM) was applied. The non-polar Fura2/AM is fluorescent but not yet calcium-sensitive. Once diffuses into cell plasma, Fura-2/AM is hydrolyzed to Fura-2 which is calcium-sensitive and functions as Ca2+ chelator. Regardless of the presence of calcium, Fura-2 emits at the wavelength of 510 nm. Once Fura-2 binds to free intracellular Ca2+ in cell plasma, its ratio of excitation at wavelengths of 340 nm and 380 nm is changed and correlated to the amount of intracellular Ca2+. According to this feature, the analysis of 340/380 nm excitation ratio for Fura-2 allows to quantify intracellular calcium levels.
(§5) In preparation for Ca-imaging measurements, transfected HEK293 cells were added 3 it Fura2/AM (3 μM) and incubated 30-45 min at 370 C, 5% CO2. After this step, experiments were carried out in a dark condition (Fura-2 is light-sensitive). After the incubation, medium of cell culture was replaced with 2 ml Ringer's solution.
(§6) Odorants were freshly prepared with DMSO as 1 M stocks solutions. Six mixtures (200 μM each chemical) were applied to cells sequentially (20 s each mixture/30 s Ringer). Those ORs tested with single odorants that had generated a response to odorant mixture group previously. Odorants were prepared in 100-200 μM concentration.
(§7) Ringer's solution was used for washing cells between measuring by two different odorants. Positive response was determined by the timing of the response, the strength of the response (more than twofold higher than the noise amplitude of the baseline), and the shape of the response curve (sharp rise in curve with gradual recovery). The typical shape of response curves was established by observing responses to repeated stimulation with 200 μM of odorants. After testing with single odorants at 100 μM, stimulating odorants were often retested at 200 μM concentrations. To confirm the result of every receptor that produced a significant response curves, the experiment was repeated for twelve times. Finally, cells were exposed to ATP (0.25 mM) which could activate P2Y receptor channel and induce Ca2+ influx into cells. […]

[2] = target: T2, OR10A6 (Homo sapiens, UniProt Q8NH74); assay: Ca-imaging of OR10A6-transfected HEK293 cells; parameters: key to OR10A6 responded to odorant: ▪: 18 olfactory receptors responded to 32 odorants in related with specific anosmia
T2 construct: specific primers, which amplify the complete open reading frame; expressed in transfected cells; host or cells: HEK293
T2 sequence (Q8NH74 1-314): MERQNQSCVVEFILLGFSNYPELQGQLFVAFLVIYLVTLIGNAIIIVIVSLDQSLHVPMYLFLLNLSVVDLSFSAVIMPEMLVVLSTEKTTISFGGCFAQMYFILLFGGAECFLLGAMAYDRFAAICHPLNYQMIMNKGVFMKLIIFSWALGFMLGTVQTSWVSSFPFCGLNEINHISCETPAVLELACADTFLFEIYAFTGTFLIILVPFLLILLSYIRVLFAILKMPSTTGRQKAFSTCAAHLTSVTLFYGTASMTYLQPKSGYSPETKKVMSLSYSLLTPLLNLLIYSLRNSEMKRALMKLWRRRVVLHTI
Protocol: as §1, §2, §3, §4, §5, §6
Ringer's solution was used for washing cells between measuring by two different odorants. Positive response was determined by the timing of the response, the strength of the response (more than twofold higher than the noise amplitude of the baseline), and the shape of the response curve (sharp rise in curve with gradual recovery). […]

[3] = target: T3, OR2L8 (Homo sapiens, UniProt Q8NGY9); assay: Ca-imaging of OR2L8-transfected HEK293 cells; parameters: key to OR2L8 responded to odorant: ▪: 18 olfactory receptors responded to 32 odorants in related with specific anosmia
T3 construct: specific primers, which amplify the complete open reading frame; expressed in transfected cells; host or cells: HEK293
T3 sequence (Q8NGY9 1-312): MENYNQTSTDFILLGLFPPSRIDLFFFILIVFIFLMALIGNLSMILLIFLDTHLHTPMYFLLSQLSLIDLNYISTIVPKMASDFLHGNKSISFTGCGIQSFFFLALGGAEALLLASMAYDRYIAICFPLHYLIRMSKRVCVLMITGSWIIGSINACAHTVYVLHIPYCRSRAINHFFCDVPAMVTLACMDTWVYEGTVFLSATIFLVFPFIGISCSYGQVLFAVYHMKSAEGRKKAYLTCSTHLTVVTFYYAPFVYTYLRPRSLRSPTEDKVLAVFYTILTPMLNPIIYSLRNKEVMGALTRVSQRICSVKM
Protocol: as §1, §2, §3, §4, §5, §6, §7

[4] = tested on: HEK293 cells transfected with all cofactors and pCI plasmids without ORs; assay: Ca-imaging of control HEK293 cells without OR; settings: odorant 200 μM, three times of measuring (Table 4, FIG. 5)
Protocol: as §1, §2, §3, §4, §5, §6, §7

[5] = target: T4, OR4X2 (Homo sapiens, UniProt Q8NGF9); assay: Ca-imaging of OR4X2-transfected HEK293 cells; settings: odorant 200 μM, approximately 2000 transfected cells in three times of measuring (Table 4, FIG. 5)
T4 construct: specific primers, which amplify the complete open reading frame; expressed in transfected cells; host or cells: HEK293
T4 sequence (Q8NGF9 1-303): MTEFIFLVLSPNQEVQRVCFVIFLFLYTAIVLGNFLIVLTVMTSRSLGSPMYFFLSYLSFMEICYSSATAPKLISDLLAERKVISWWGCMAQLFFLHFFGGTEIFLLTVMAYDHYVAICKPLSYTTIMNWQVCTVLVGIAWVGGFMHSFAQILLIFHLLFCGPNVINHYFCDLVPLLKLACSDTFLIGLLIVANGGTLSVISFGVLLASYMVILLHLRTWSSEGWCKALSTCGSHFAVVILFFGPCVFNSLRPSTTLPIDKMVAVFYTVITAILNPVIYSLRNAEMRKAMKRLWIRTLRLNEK
Protocol: as §1, §2, §3, §4, §5, §6, §7

[6] = target: T5, OR8B4 (Homo sapiens, UniProt Q96RC9); assay: Ca-imaging of OR8B4-transfected HEK293 cells; parameters: key to OR8B4 responded to odorant: ▪: 18 olfactory receptors responded to 32 odorants in related with specific anosmia
T5 construct: specific primers, which amplify the complete open reading frame; expressed in transfected cells; host or cells: HEK293
T5 sequence (Q96RC9 1-309): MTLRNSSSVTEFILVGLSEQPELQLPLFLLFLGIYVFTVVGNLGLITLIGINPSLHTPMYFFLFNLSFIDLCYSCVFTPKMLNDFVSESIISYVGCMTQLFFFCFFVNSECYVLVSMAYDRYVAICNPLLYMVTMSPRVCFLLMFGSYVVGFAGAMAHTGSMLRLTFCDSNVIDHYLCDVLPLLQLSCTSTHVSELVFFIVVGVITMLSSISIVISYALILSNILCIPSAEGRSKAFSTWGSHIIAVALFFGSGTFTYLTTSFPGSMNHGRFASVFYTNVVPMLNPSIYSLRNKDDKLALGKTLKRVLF
Protocol: as §1, §2, §3, §4, §5, §6, §7

[7] = target: T6, OR1B1 (Homo sapiens, UniProt Q8NGR6); assay: Ca-imaging of OR1B1-transfected HEK293 cells; parameters: key to OR1B1 responded to odorant: ▪: 18 olfactory receptors responded to 32 odorants in related with specific anosmia; settings: Ca-imaging
T6 construct: specific primers, which amplify the complete open reading frame; expressed in transfected cells; host or cells: HEK293
T6 sequence (Q8NGR6 1-317): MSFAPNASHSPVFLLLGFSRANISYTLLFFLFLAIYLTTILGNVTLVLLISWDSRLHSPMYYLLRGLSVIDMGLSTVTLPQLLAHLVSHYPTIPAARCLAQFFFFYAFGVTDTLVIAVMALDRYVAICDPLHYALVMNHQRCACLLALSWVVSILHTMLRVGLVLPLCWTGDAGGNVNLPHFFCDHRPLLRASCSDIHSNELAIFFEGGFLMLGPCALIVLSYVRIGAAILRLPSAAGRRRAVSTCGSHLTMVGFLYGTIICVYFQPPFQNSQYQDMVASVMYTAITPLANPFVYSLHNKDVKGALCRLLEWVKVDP
Protocol: as §1, §2, §3, §4, §5, §6, §7

[8] = Ca-imaging, HEK293 cells, individual odorant 200 μM, significant response p<0.05
[9] = Ca-imaging, single odorants 200 μM
[10] = HEK293 cells, individual odorant 200 μM, significant response p<0.05

CCCCCCO [Alcohol C6]
OR8D2 responded to odorant [1, 8]: ▪
Response of OR8D2 to odorant, in words [1, 9]: elicited a response; also recorded: significantly activated; also recorded: detected
Number of cell responses, Experiment (OR8D2) [1]: 9
OR10A6 responded to odorant [2, 10]: ▪
Response of OR10A6 to odorant, in words ([2]; single odorants 200 μM): elicited a response; also recorded: detected

CCCC(O)CCC1C(C)CCCC1(C)C (stereo not shown) [Timbrol, Timberol]
OR2L8 responded to odorant [3, 8]: ▪
Response of OR2L8 to odorant, in words [3, 9]: Ca2+ concentration increased
Number of cell responses, Experiment (OR2L8) ([3]; odorant 200 μM, approximately 2000 transfected cells in three times of measuring (Table 4, FIG. 5)): 10
Number of cell responses, Control [4]: 1

COc1ccc(C=O)cc1 [Anisic aldehyde, Anisic Aldehyde]
Number of cell responses, Experiment (OR4X2) [5]: 14
OR8B4 responded to odorant [6, 8]: ▪
Response of OR8B4 to odorant, in words [6, 9]: responded significantly
Number of cell responses (OR8B4) ([6]; odorant 200 μM, approximately 2000 transfected cells in three times of measuring (FIG. 5)): 14
Number of cell responses, Control [4]: 0

CCCCCCCCO [Octanol]
Number of cell responses, Experiment (OR8D2) [1]: 9
Number of cell responses, Control [4]: 0

Cc1ccc2c(c1)OCC(=O)CO2 [calone, Calone]
OR1B1 responded to odorant [7, 10]: ▪
Response of OR1B1 to odorant, in words ([7]; single odorants 200 μM): significantly (P<0.05) activated
Number of cell responses, Control [4]: 0
